pIC50: −log10 of the molar value.

(recombinant) catalytic domain of human Bub1 (amino acids 704-1085), sequence (O43683 704-1085): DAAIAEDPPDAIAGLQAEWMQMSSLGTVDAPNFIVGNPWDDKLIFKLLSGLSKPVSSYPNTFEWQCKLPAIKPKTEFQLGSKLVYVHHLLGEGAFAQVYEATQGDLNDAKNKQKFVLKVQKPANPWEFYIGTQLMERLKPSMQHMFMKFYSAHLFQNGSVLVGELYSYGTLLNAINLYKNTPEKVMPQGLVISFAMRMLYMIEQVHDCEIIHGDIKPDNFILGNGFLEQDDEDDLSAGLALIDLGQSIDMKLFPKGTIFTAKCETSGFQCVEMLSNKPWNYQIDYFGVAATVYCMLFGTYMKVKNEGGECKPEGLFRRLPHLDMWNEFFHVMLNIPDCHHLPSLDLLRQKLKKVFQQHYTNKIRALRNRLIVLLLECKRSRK

The target of the test is (recombinant) catalytic domain of human Bub1 (amino acids 704-1085) (Homo sapiens (Human), UniProt O43683). Nature of the test: Bub1 kinase assay (TR-FRET). In kind it is biochemical. Particulars: ATP 10 μM final, peptide substrate 1 μM final, 60 min at 22° C., read-out: Biological Assay: Bub1 kinase assay median IC50. In short, it runs like this:
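Compounds were serially diluted 1:3.4 from 2 mM DMSO stocks and incubated with the enzyme reaction for 60 min at 22° C. The reaction was stopped with EDTA, and biotinylated peptide phosphorylation was read by TR-FRET using Eu anti-mouse IgG, anti-phosphoserine antibody and streptavidin-XL665. IC50 was fitted by 4-parameter logistic to inhibition normalized to no-inhibitor and no-enzyme controls.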
Turning to `CC1(C)CC(=O)c2c([nH]c(-c3ccnc(N4CCOCC4)c3)c2Nc2ccccc2)C1` [Example 127, 6,6-dimethyl-2-[2-(morpholin-4-yl)pyridin-4-yl]-3-(phenylamino)-1,5,6,7-tetrahydro-4H-indol-4-one], the pIC50 is 5.11.

Regarding `CCOc1ccccc1Nc1c(-c2ccncc2)[nH]c2c1C(=O)CC(C)(C)C2` [Example 128, 3-[(2-ethoxyphenyl)amino]-6,6-dimethyl-2-(pyridin-4-yl)-1,5,6,7-tetrahydro-4H-indol-4-one], the pIC50 is 6.24.

`CC1(C)CC(=O)c2c([nH]c(-c3ccncc3)c2Nc2ccc(F)c(C(F)(F)F)c2)C1` [Example 129, 3-{[4-fluoro-3-(trifluoromethyl)phenyl]amino}-6,6-dimethyl-2-(pyridin-4-yl)-1,5,6,7-tetrahydro-4H-indol-4-one]: the pIC50 was 6.35.

As to `CC1(C)CC(=O)c2c([nH]c(-c3ccncc3)c2Nc2ccc3ccsc3c2)C1` [Example 130, 3-(1-benzothiophen-6-ylamino)-6,6-dimethyl-2-(pyridin-4-yl)-1,5,6,7-tetrahydro-4H-indol-4-one], the negative logarithm of the IC50 (pIC50) is 7.24.

In the case of `Cc1cnccc1-c1[nH]c2c(c1Nc1ccccc1)C(=O)CC(C)(C)C2` [Example 131, 6,6-dimethyl-2-(3-methylpyridin-4-yl)-3-(phenylamino)-1,5,6,7-tetrahydro-4H-indol-4-one], the pIC50 is 7.29.

With `CC(C)C(=O)Nc1cc(-c2[nH]c3c(c2Nc2ccccc2)C(=O)CC(C)(C)C3)ccn1` [Example 132, N-{4-[6,6-dimethyl-4-oxo-3-(phenylamino)-4,5,6,7-tetrahydro-1H-indol-2-yl]pyridin-2-yl}-2-methylpropanamide], the pIC50 was 7.30.

As to `CC(=O)N(C(C)=O)c1cc(-c2[nH]c3c(c2Nc2ccccc2)C(=O)CC(C)(C)C3)ccn1` [Example 133, N-acetyl-N-{4-[6,6-dimethyl-4-oxo-3-(phenylamino)-4,5,6,7-tetrahydro-1H-indol-2 yl]pyridin-2-yl}acetamide], the pIC50 is 7.31.

As for `O=C1CCCc2[nH]c(-c3ccncc3)c(Nc3ccc(F)c(F)c3)c21` [Example 134, 3-[(3,4-difluorophenyl)amino]-2-(pyridin-4-yl)-1,5,6,7-tetrahydro-4H-indol-4-one], the pIC50 is 7.30.

As to `CC1(C)CC(=O)c2c([nH]c(-c3c(F)cncc3F)c2Nc2ccccc2)C1` [Example 135, 2-(3,5-difluoropyridin-4-yl)-6,6-dimethyl-3-(phenylamino)-1,5,6,7-tetrahydro-4H-indol-4-one], the pIC50 is 6.73.

As for `O=C1CCCc2[nH]c(-c3c(F)cncc3F)c(Nc3cccc(F)c3)c21` [Example 136, 2-(3,5-difluoropyridin-4-yl)-3-[(3-fluorophenyl)amino]-1,5,6,7-tetrahydro-4H-indol-4-one], the pIC50 is 6.03.

Take `Nc1cc(-c2[nH]c3c(c2Nc2cccc(F)c2)C(=O)CCC3)ccn1` [Example 138, 2-(2-aminopyridin-4-yl)-3-[(3-fluorophenyl)amino]-1,5,6,7-tetrahydro-4H-indol-4-one]: the pIC50 was 7.03.

As for `Nc1cc(-c2[nH]c3c(c2Nc2ccccc2)C(=O)CCC3)ccn1` [Example 139, 2-(2-aminopyridin-4-yl)-3-(phenylamino)-1,5,6,7-tetrahydro-4H-indol-4-one], the pIC50 is 6.95.

Consider `O=C1CCCc2[nH]c(-c3ccncc3Cl)c(Nc3ccc(F)cc3)c21` [Example 142, 2-(3-chloropyridin-4-yl)-3-[(4-fluorophenyl)amino]-1,5,6,7-tetrahydro-4H-indol-4-one], for which the pIC50 is 7.16.

As to `Cc1cc(-c2[nH]c3c(c2Nc2ccccc2)C(=O)CCC3)ccn1` [Example 143, 2-(2-methylpyridin-4-yl)-3-(phenylamino)-1,5,6,7-tetrahydro-4H-indol-4-one], the pIC50 was 6.25.

`CCNC(=O)c1cccc(Nc2c(-c3ccncc3)[nH]c3c2C(=O)CC(C)(C)C3)c1` [Example 144, 3-{[6,6-dimethyl-4-oxo-2-(pyridin-4-yl)-4,5,6,7-tetrahydro-1H-indol-3-yl]amino}-N-ethylbenzamide]: the pIC50 is 5.76.

Turning to `CNc1cc(-c2[nH]c3c(c2Nc2ccccc2)C(=O)CC(C)(C)C3)ccn1` [Example 145, 6,6-dimethyl-2-[2-(methylamino)pyridin-4-yl]-3-(phenylamino)-1,5,6,7-tetrahydro-4H-indol-4-one], the pIC50 was 6.83.

`CC1(C)CC(=O)c2c([nH]c(-c3ccncc3)c2Nc2ccccc2C#N)C1` [Example 146, 2-{[6,6-dimethyl-4-oxo-2-(pyridin-4-yl)-4,5,6,7-tetrahydro-1H-indol-3-yl]amino}benzonitrile]: the pIC50 was 7.32.

In the case of `CC1(C)CC(=O)c2c([nH]c(-c3ccncc3)c2Nc2ccc(F)c(C#N)c2)C1` [Example 147, 5-{[6,6-dimethyl-4-oxo-2-(pyridin-4-yl)-4,5,6,7-tetrahydro-1H-indol-3-yl]amino}-2-fluorobenzonitrile], the pIC50 is 6.59.

`CC1(C)CC(=O)c2c([nH]c(-c3ccncc3)c2Nc2ccc(F)c(OC(F)(F)F)c2)C1` [Example 148, 3-{[4-fluoro-3-(trifluoromethoxy)phenyl]amino}-6,6-dimethyl-2-(pyridin-4-yl)-1,5,6,7-tetrahydro-4H-indol-4-one]: the pIC50 is 6.32.

For `Cc1cc(-c2[nH]c3c(c2Nc2ccccc2)C(=O)CC(C)(C)C3)ccn1` [Example 149, 6,6-dimethyl-2-(2-methylpyridin-4-yl)-3-(phenylamino)-1,5,6,7-tetrahydro-4H-indol-4-one], the pIC50 is 7.03.

Turning to `COc1cc(-c2[nH]c3c(c2Nc2ccccc2)C(=O)CCC3)ccn1` [Example 150, 2-(2-methoxypyridin-4-yl)-3-(phenylamino)-1,5,6,7-tetrahydro-4H-indol-4-one], the pIC50 was 5.72.

For the compound `O=C1CCCc2[nH]c(-c3ccnc(Br)c3)c(Nc3ccccc3)c21` [Example 152, 2-(2-bromopyridin-4-yl)-3-(phenylamino)-1,5,6,7-tetrahydro-4H-indol-4-one], the pIC50 was 6.62.

Consider `CC1(C)CC(=O)c2c([nH]c(-c3ccncc3)c2Nc2cccc(C3(C)OCCO3)c2)C1` [Example 153, 6,6-dimethyl-3-{[3-(2-methyl-1,3-dioxolan-2-yl)phenyl]amino}-2-(pyridin-4-yl)-1,5,6,7-tetrahydro-4H-indol-4-one], for which the pIC50 is 4.94.

Turning to `CCC(O)c1cccc(Nc2c(-c3ccncc3)[nH]c3c2C(=O)CC(C)(C)C3)c1` (centres unmarked) [Example 154, 3-{[3-(1-hydroxypropyl)phenyl]amino}-6,6-dimethyl-2-(pyridin-4-yl)-1,5,6,7-tetrahydro-4H-indol-4-one], the pIC50 was 5.52.

Regarding `CC1(C)CC(=O)c2c([nH]c(-c3ccncc3)c2Nc2cccc(C(O)C(F)(F)F)c2)C1` (centres unmarked) [Example 155, 6,6-dimethyl-2-(pyridin-4-yl)-3-{[3-(2,2,2-trifluoro-1-hydroxyethyl)phenyl]amino}-1,5,6,7-tetrahydro-4H-indol-4-one], the pIC50 is 5.77.

Turning to `COC(C)c1cccc(Nc2c(-c3ccncc3)[nH]c3c2C(=O)CC(C)(C)C3)c1` (centres unmarked) [Example 156, 3-{[3-(1-methoxyethyl)phenyl]amino}-6,6-dimethyl-2-(pyridin-4-yl)-1,5,6,7-tetrahydro-4H-indol-4-one], the pIC50 was 6.13.

In the case of `CC1(C)CC(=O)c2c([nH]c(-c3ccncc3)c2Nc2cccc3ccccc23)C1` [Example 157, 6,6-dimethyl-3-(naphthalen-1-ylamino)-2-(pyridin-4-yl)-1,5,6,7-tetrahydro-4H-indol-4-one], the pIC50 was 6.12.

For `CC1(C)CC(=O)c2c([nH]c(-c3ccncc3)c2Nc2ccc3ccccc3c2)C1` [Example 158, 6,6-dimethyl-3-(naphthalen-2-ylamino)-2-(pyridin-4-yl)-1,5,6,7-tetrahydro-4H-indol-4-one], the pIC50 was 7.02.

Turning to `CC1(C)CC(=O)c2c([nH]c(-c3ccncc3)c2Nc2ccccc2Oc2ccccc2)C1` [Example 159, 6,6-dimethyl-3-[(2-phenoxyphenyl)amino]-2-(pyridin-4-yl)-1,5,6,7-tetrahydro-4H-indol-4-one], the pIC50 is 5.97.

Take `CC1(C)CC(=O)c2c([nH]c(-c3ccncc3)c2Nc2ccccc2-c2ccccc2)C1` [Example 160, 3-(biphenyl-2-ylamino)-6,6-dimethyl-2-(pyridin-4-yl)-1,5,6,7-tetrahydro-4H-indol-4-one]: the pIC50 was 6.69.

For `O=C1CCCc2[nH]c(-c3ccnc(N(C(=O)C4CC4)C(=O)C4CC4)c3)c(Nc3cccc(F)c3)c21` [Example 162, N-(cyclopropylcarbonyl)-N-(4-{3-[(3-fluorophenyl)amino]-4-oxo-4,5,6,7-tetrahydro-1H-indol-2-yl}pyridin-2-yl)cyclopropanecarboxamide], the pIC50 was 7.07.

On to `O=C1CCCc2[nH]c(-c3ccnc(N(C(=O)C4CC4)C(=O)C4CC4)c3)c(Nc3ccccc3)c21` [Example 163, N-(cyclopropylcarbonyl)-N-{4-[4-oxo-3-(phenylamino)-4,5,6,7-tetrahydro-1H-indol-2-yl]pyridin-2-yl}cyclopropanecarboxamide], for which the pIC50 was 6.90.

On to `CC1(C)CC(=O)c2c([nH]c(-c3ccnc(NC(=O)C(F)F)c3)c2Nc2ccccc2)C1` [Example 166, N-{4-[6,6-dimethyl-4-oxo-3-(phenylamino)-4,5,6,7-tetrahydro-1H-indol-2-yl]pyridin-2-yl}-2,2-difluoroacetamide], for which the pIC50 was 5.77.

On to `Cn1c2c(c(Nc3ccccc3)c1-c1ccncc1)C(=O)CCC2` [Example 169, 1-methyl-3-(phenylamino)-2-(pyridin-4-yl)-1,5,6,7-tetrahydro-4H-indol-4-one], for which the pIC50 was 6.90.

Consider `CCn1c2c(c(Nc3ccccc3)c1-c1ccncc1)C(=O)CCC2` [Example 170, 1-ethyl-3-(phenylamino)-2-(pyridin-4-yl)-1,5,6,7-tetrahydro-4H-indol-4-one], for which the pIC50 is 7.40.

Values taken from patent publication US10428044B2, “3-amino-1,5,6,7-tetrahydro-4H-indol-4-ones” (Bayer Pharma Aktiengesellschaft, priority 2014, dated 2019).
